# In patent US20080057136A1, “Disinfecting Composition and Methods of Making and Using Same” (priority 2003, published 2008):
# Where two headings read alike, the source gives them in different places.
# Experiments:
# [1] = system: dermatophyte infections; settings: dermatophyte infections in animals; cited from earlier work
# [2] = system: Staphylococcus aureus (ATCC 25923); assay: Time-Kill test (Example 9); assay type: cell-based; settings: Study 509-101; at 30 seconds
# Experimental: A panel of “challenge microorganisms,” including select bacteria, yeast, and fungi was used to assess the disinfecting properties of test compounds, e.g., AMC (DPT Laboratories). Specifically, the disinfectant property of test compounds were tested against Staphylococcus aureus (ATCC 25923); Staphylococcus epidermidis (ATCC 12228); Bacillus subtilis (ATCC 19659); Escherichia coli (ATCC 11229); and Pseudomonas aeruginosa (ATCC 15442) bacteria, as well as the yeast Candida albicans (ATCC 10231), and the fungus Trichophyton rubrum (ATCC 28188). The test procedure incorporated the recommendations described in the “Manual of Clinical Microbiology,” 5th ed., edited by A. B. Balows et al., ASM, Washington, as directed by the Federal Register, June 1994. […]
# A single lot of test material was prepared at various concentrations, along with multiple compounds prepared in various concentrations and combinations. […] The plates were then incubated, and the average colony forming units (CFU) recovered per milliliter were determined for each contact time. […]
# Bacteria and C. albicans from stock cultures were transferred into trypticase soya broth (TSB) and incubated for 18-24 hours at 37° C.±2° C. […] The microbe concentration was measured using a spectrophotometric technique well-known in the art. […]
# [3] = system: Trichophyton rubrum (ATCC 28188); assay: Time-Kill test (Example 9); assay type: cell-based; settings: Table 25, first value column
# Experimental: A panel of “challenge microorganisms,” including select bacteria, yeast, and fungi was used to assess the disinfecting properties of test compounds, e.g., AMC (DPT Laboratories). […] The procedure was based on the ASTM procedure entitled, “Standard Test Method for the Assessment of Microbial Activity of Test Materials Using Time-Kill Procedure.”
# A single lot of test material was prepared at various concentrations, along with multiple compounds prepared in various concentrations and combinations. These test materials were tested in duplicate against various bacteria, yeast and fungi. To minimize potential buffer interference and to minimize reduction of antimicrobial activity, the volume of the inoculum added to the test material was maintained at, or below, 1% of the total volume of the test. Samples were removed at various contact times. Serial dilutions were performed, and duplicate aliquots were plated. The plates were then incubated, and the average colony forming units (CFU) recovered per milliliter were determined for each contact time. The contact times for the test compounds with S. aureus, E. coli, P. aeruginosa, and C. albicans were 30 sec, 1 min, and 5 min. The contact times for the test compounds with B. subtilis were 1 and 10 min, 1 h, 2 h, 3 h, and 24 h. The contact times for the test compounds with T. rubrum were 30 sec, 1 min and 10 min. The contact temperature was ambient room temperature (20-21° C.).
# The fungus, T. rubrum, was inoculated onto Emmon's agar (EA) and incubated at 25-30° C. for 10-15 days. The mycelial mats from mature cultures were removed from the surface of at least 5 plates and macerated with sterile saline (SS) in a sterile glass tissue grinder. The suspension was filtered through sterile glass wool to remove the hyphae.
# The density of the conidial suspension was determined by serially diluting the prepared culture in BPDW. Aliquots from selected dilutions were plated on duplicate EA plates. The plates were incubated for 3-5 days at 25-30° C. and then each plate was examined for enumeration.
# The suspension was stored at 2-10° C. for 4 weeks before use. On the day of testing, the suspension was adjusted to yield approximately 5.0×10^8 CFU by dilution with BPDW.
# Compliant with the ASTM procedure cited above, the challenge microorganism was added to the test material by dispensing 99 ml of the test material into two sterile flasks, each containing a stir bar. The reaction flasks were allowed to equilibrate to the test temperature for at least 10 minutes. The flasks were placed in water baths on stir plates and maintained at the test temperature with stirring. A 1 ml aliquot of the prepared inoculum of the challenge microorganism was added to each flask to begin the contact period. At each contact time, 1 ml aliquot samples were removed and added to tubes containing 9 ml PBDW+. Serial 10-fold dilutions of each sample were then prepared in PBDW dilution blanks. Duplicate aliquots from selected dilutions were plated using the appropriate agar.
# Upon completion of all contact periods, all plates were inverted and incubated for the appropriate time and temperature as follows: bacteria and yeast were incubated over 2 nights at 37° C.±2° C., and the fungus was incubated for at least 5 nights at 25-30° C. Following incubation, all plates were removed, the colonies were counted and the CFU recovered per ml at each contact time were calculated.
# [4] = system: S. epidermidis ATCC 12228; assay: NCCLS broth microdilution MIC and MBC (Example 10); assay type: cell-based, Staphylococcus epidermidis
# Experimental: (§4) Strains of E. coli (ATCC 11229), D. aeruginosa (ATCC 15442), S. aureus (ATCC 25923), S. epidermidis (ATCC 12228), S. pyogenes (ATCC 19615), C. albicans (ATCC 10231), and T. rubrum (ATCC 28188) were used as “challenge microorganisms” in this study. Strains were removed from frozen stock and subcultured twice on blood agar to ensure that the strains had optimal growth and metabolic status before testing.
# (§5) Hibiclens (industry comparator) and ciprofloxacin were added to the bacterial panel. Amphotericin B, fluconazole, and Hibiclens were added as comparative agents in the fungal panels.
# (§6) For testing purposes, AMC, AMC components, and Hibiclens were diluted to 50% of the working solution to cover the proposed AMC use dilution of 20%.
# (§7) Microtiter panels were created on the day of MIC testing. A 50 μl aliquot of Mueller-Hinton broth (for bacterial strains) or RPMI 1640 (for fungal strains) was delivered to each well, except those in column one of the microtiter panel. The working solution of AMC and each of its components, and comparative agents were delivered to the designated wells in column one. AMC, components, and comparators were serially diluted across the panel. A 50 μl aliquot of bacterial or fungal suspension was then added to each well on the microtiter panel, using a new pipette tip for each aliquot. Panels were incubated at 35° C. for 16-20 h for the E. coli, P. aeruginosa, and S. aureus strains, 20-24 h for the S. pyogenes strain, and 48 h for the C. albicans strain.
# (§8) The 10 μl samples were plated on to blood agar and incubated at 35° C. for 24 h (E. coli and P. aeruginosa) or 48 h (S. aureus, S. epidermidis, and S. pyogenes). After incubation, colony counts for each panel well plated were recorded.
# (§9) The MIC % is expressed as g/100 ml or ml/100 ml. […] The MBC % is expressed as g/100 ml or ml/100 ml.
# [5] = system: S. aureus ATCC 25923; assay: NCCLS broth microdilution MIC and MBC (Example 10); assay type: cell-based, Staphylococcus aureus
# Experimental: as §4, §5, §6, §7, §8, §9
# [6] = system: S. pyogenes ATCC 19615; assay: NCCLS broth microdilution MIC and MBC (Example 10); assay type: cell-based, Streptococcus pyogenes
# Experimental: as §4, §5, §6, §7, §8, §9
# [7] = system: P. aeruginosa ATCC 15442; assay: NCCLS broth microdilution MIC and MBC (Example 10); assay type: cell-based, Pseudomonas aeruginosa
# Experimental: as §4, §5, §6, §7, §8, §9
# [8] = system: T. rubrum ATCC 28188; assay: NCCLS broth microdilution MIC and MFC (Example 10); assay type: cell-based, Trichophyton rubrum
# Experimental: as §4
# (§10) Amphotericin B, fluconazole, and Hibiclens were added as comparative agents in the fungal panels.
# as §6
# (§11) Microtiter panels were created on the day of MIC testing. A 50 μl aliquot of Mueller-Hinton broth (for bacterial strains) or RPMI 1640 (for fungal strains) was delivered to each well, except those in column one of the microtiter panel. The working solution of AMC and each of its components, and comparative agents were delivered to the designated wells in column one. AMC, components, and comparators were serially diluted across the panel. A 50 μl aliquot of bacterial or fungal suspension was then added to each well on the microtiter panel, using a new pipette tip for each aliquot. Panels were incubated at 35° C. for 16-20 h for the E. coli, P. aeruginosa, and S. aureus strains, 20-24 h for the S. pyogenes strain, and 48 h for the C. albicans strain. T. rubrum panels were incubated for 3 to 4 days before MICs were read. […] Fungal MICs (%) were read using an 80% reduction in the growth endpoint relative to the turbidity of the growth control for AMC, its components, and fluconazole. For amphotericin B, the endpoint was read as the complete inhibition of growth.
# (§12) MFCs were determined in a similar manner.
# (§13) The endpoint for amphotericin B was read as complete inhibition of growth. The MIC % is expressed as g/100 ml or ml/100 ml. […] The MFC % is expressed as g/100 ml or ml/100 ml.
# [9] = system: T. rubrum ATCC 28188; assay: NCCLS broth microdilution MIC and MFC (Example 11); assay type: cell-based, Trichophyton rubrum
# Experimental: (§14) Strains of C. albicans (ATCC 10231) and T. rubrum (ATCC 28188) were tested in this study. Strains were removed from frozen stock and subcultured twice on blood agar to ensure that the strains had optimal growth and metabolic status before testing. Strains were tested by NCCLS broth microdilution (M27-A2, 2002) and challenged with AMC solution and its individual components […] ), and isopropanol. Amphotericin B, fluconazole, terbinafine, and Hibiclens were added as comparator compounds. […] Microtiter panels were created on the day of MIC testing. A 50 μl aliquot of RPMI 1640 was delivered to each well except those in column one of the microtiter panel. The working solution of AMC and each of its components, and comparative agents were delivered to the designated wells in column one; AMC, components, and comparators were serially diluted across the panel. A 50 μl aliquot of fungal suspension was then added to each well on the microtiter panel, using a new pipette tip for each aliquot. […] For amphotericin B, the endpoint was read as the complete inhibition of growth. […] MFCs were performed to determine the concentration at which ≧99% of the starting fungal inoculum was killed. […] After incubation, colony counts for each panel well plated were recorded. […] The endpoint for amphotericin B was read as complete inhibition of growth.
# [10] = component at 100%; cited from earlier work
# [11] = component at 100%; cited from earlier work; remark: listed apart in the source
# [12] = Acute oral toxicity, rat; settings: rat, in vivo, po
# [13] = Acute dermal toxicity, rabbit; settings: rabbit, in vivo, topical or ocular
# [14] = Acute inhalation toxicity, rat; settings: rat, in vivo, inhaled
# [15] = system: C. albicans; assay: MIC and MBC determination by doubling dilutions (Study 509-102); assay type: cell-based; settings: Candida albicans, Inoculum Counts: 6.6 × 10^5
# From the text: (§1) Table 2 below indicates the stock dilutions for each test agent, and a breakdown of the resulting concentrations for each of the doubling dilutions performed is summarized in Table 3.
# (§2) From the stock dilutions, an initial 1:10 dilution was made (representing tube 1), followed by doubling dilutions (tubes 2-12), as detailed in Table 3.
# [16] = system: Escherichia coli; assay: as above; assay type: cell-based; settings: Inoculum Counts: 9.4 × 10^5
# From the text: as §1, §2
# [17] = system: Pseudomonas aeruginosa; assay: as above; assay type: cell-based; settings: Inoculum Counts: 8.8 × 10^5
# From the text: as §1, §2
# [18] = system: S. epidermidis; assay: as above; assay type: cell-based; settings: Staphylococcus epidermidis, Inoculum Counts: 9.0 × 10^5
# From the text: as §1, §2
# [19] = system: S. pyogenes; assay: as above; assay type: cell-based; settings: Streptococcus pyogenes, Inoculum Counts: 9.8 × 10^5
# From the text: as §1, §2
# [20] = system: Staphylococcus aureus; assay: as above; assay type: cell-based; settings: Inoculum Counts: 7.5 × 10^6
# From the text: as §1, §2
# [21] = system: T. rubrum; assay: as above; assay type: cell-based, Trichophyton rubrum; settings: Trichophyton rubrum; Study 509-102; Inoculum Counts: 3.6 × 10^8
# From the text: as §1, §2
# [22] = system: E. coli ATCC 11229; assay: NCCLS broth microdilution MIC and MBC (Example 10); assay type: cell-based, Escherichia coli
# Experimental: as §4, §5, §6, §7, §8, §9
# [23] = in vivo; cited from earlier work
# [24] = system: E. coli (strain 1257); assay: Time-kill test, initial studies (death time); assay type: cell-based, Escherichia coli
# From the text: (§3) Time-kill tests were used to measure the disinfecting property of test compounds, e.g., microbiocidal or sporicidal compositions, using select bacterial challenge microorganisms such as the vegetative forms of, e.g., E. coli (strain 1257) S. aureus (strain 906), and Bacillus cereus (strain 96).
# [25] = system: S. aureus (strain 906); assay: Time-kill test, initial studies (death time); assay type: cell-based, Staphylococcus aureus
# From the text: as §3
# [26] = system: C. albicans ATCC 10231; assay: NCCLS broth microdilution MIC and MFC (Example 10); assay type: cell-based, Candida albicans
# Experimental: as §4, §10, §6, §11, §12, §13
# [27] = system: C. albicans ATCC 10231; assay: NCCLS broth microdilution MIC and MFC (Example 11); assay type: cell-based, Candida albicans
# Experimental: as §14
# [28] = system: Bacillus cereus (strain 96); assay: Time-kill test, initial studies (death time, sporicidal activity); assay type: cell-based; settings: Conc. 5.0 %
# [29] = Example 10, % as g/100 ml or ml/100 ml
# [30] = Example 10, 99.9% inhibition of growth
# [31] = Example 10, MBC within one doubling dilution of the MIC
# [32] = 80% reduction in growth endpoint
molecule,measurement,setting,value
CC(C)N1CCN(c2ccc(N3CCN(c4ccc(OC[C@H]5OC[C@](Cn6cncn6)(c6ccc(F)cc6F)O5)cc4)CC3)cc2)C1=O [Azoline],activity relative to itraconazole,[1],5 times
"CCCCCCCCCCCCCCCC[n+]1ccccc1 [CPC, Cetyl Pyridinium Chloride]",reduction of S. aureus count,[2],2 log10
same,30-Second Log Reduction from Initial T. rubrum CFU Values,[3],3.4 Logs
same,MCB (μg/ml),[4],(<=7) μg/ml
same,"MCB, %",[4]; % as g/100 ml or ml/100 ml,<=0.0007%
same,"MBC, %",[5]; [29],<=0.0007%
same,MBC,"[5]; Staphylococcus aureus, ATCC25923",≤ 7 µg/mL
same,"MBC, %",[6]; [29],<=0.0007%
same,MBC,"[6]; Streptococcus pyogenes, ATCC19615",≤ 7 µg/mL
same,"MBC, %",[7]; [29],0.04%
same,MBC,"[7]; Pseudomonas aeruginosa, ATCC15442",400 µg/mL
same,"MFC, %",[8]; [30],≤ 0.0007%
same,MFC,"[8]; Trichophyton rubrum, ATCC28188",≤ 7 µg/mL
same,"MFC, %",[9]; Example 11,≤ 0.0007%
same,MFC,"[9]; Trichophyton rubrum, ATCC28188",≤ 7 µg/mL
same,Rabbit Dermal LD50,[10],">2,000 mg/Kg"
same,Rat Inhalation LC50,[11],0.090 µg/mL
same,LD50,[12],20000 mg/kg
same,LD50,[13],> 20000 mg/kg
same,LC50,[14],9 µg/mL
O=C(O)c1cn(C2CC2)c2cc(N3CCNCC3)c(F)cc2c1=O [Ciprofloxacin],MBC,[15],> 0.1 µg/mL
same,MIC,[15],> 0.1 µg/mL
same,MBC,[16],> 0.1 µg/mL
same,MIC,[16],> 0.1 µg/mL
same,MBC,[17],> 0.1 µg/mL
same,MIC,[17],> 0.1 µg/mL
same,MBC,[18],> 0.1 µg/mL
same,MIC,[18],> 0.1 µg/mL
same,MBC,[19],> 0.1 µg/mL
same,MIC,[19],> 0.1 µg/mL
same,MBC,[20],> 0.1 µg/mL
same,MIC,[20],> 0.1 µg/mL
same,MBC,[21],> 0.1 µg/mL
same,MIC,[21],> 0.1 µg/mL
same,MCB,[4],0.25 µg/mL
same,bactericidal activity,[4]; MBC within one doubling dilution of the MIC,bactericidal activity
same,MIC,"[4]; Staphylococcus epidermidis, ATCC12228",0.25 µg/mL
same,bactericidal activity,[5]; [31],bactericidal activity
same,MIC,"[5]; Staphylococcus aureus, ATCC25923, Example 10",0.5 µg/mL
same,MBC,"[5]; Staphylococcus aureus, ATCC25923, Example 10, read-out: MBC",0.5 µg/mL
same,MIC,"[6]; Streptococcus pyogenes, ATCC19615, Example 10",0.5 µg/mL
same,MBC,"[6]; Streptococcus pyogenes, ATCC19615, Example 10, read-out: MBC",0.5 µg/mL
same,MIC,"[22]; Escherichia coli, ATCC11229",≤ 0.03 µg/mL
same,MIC,"[7]; Pseudomonas aeruginosa, ATCC15442, Example 10",0.12 µg/mL
same,MBC,"[7]; Pseudomonas aeruginosa, ATCC15442, Example 10, read-out: MBC",0.5 µg/mL
C=C1/C(=C/C=C2\CCC[C@]3(C)[C@@H]([C@@H](C)CCC(=O)N4CCCCC4)CC[C@@H]23)C[C@@H](O)C[C@@H]1O [Ecalcidene],"dose with immunological effects, times lower than doses causing toxicity associated with hypercalcemia",[23],10-100 times
"O=C(O)CN(CCN(CC(=O)O)CC(=O)O)CC(=O)O.[Zn] [ZnEDTA, ethylenediaminotetraacetate zinc complex]",Death time of test-microorganisms (min) E. coli,[24]; Conc. 0.1 %,>30 min
same,Death time of test-microorganisms (min) E. coli,[24]; Conc. 5.0 %,>30 min
same,Death time of test-microorganisms (min) S. aureus,[25]; Conc. 0.1 %,>30 min
same,Death time of test-microorganisms (min) S. aureus,[25]; Conc. 5.0 %,>30 min
same,reduction of S. aureus count,[2],ineffective
same,MCB (μg/ml),[4],(>25000) μg/ml
same,"MCB, %",[4]; % as g/100 ml or ml/100 ml,>2.5%
same,"MIC, %",[4]; % as g/100 ml or ml/100 ml,1.3%
same,MBC (μg/ml),[5]; Example 10,(>25000) μg/ml
same,"MBC, %",[5]; [29],>2.5%
same,"MIC, %",[5]; [29],1.3%
same,MBC (μg/ml),[6]; Example 10,(13000) μg/ml
same,"MBC, %",[6]; [29],1.3%
same,"MIC, %",[6]; [29],1.3%
same,"MIC, %",[22]; % as g/100 ml or ml/100 ml,2%
same,MBC,[7]; Example 10,80000 µg/mL
same,"MBC, %",[7]; [29],8%
same,"MIC, %",[7]; [29],2%
same,bactericidal activity,[7]; [31],did not meet the definition of bactericidal
same,"MIC, %",[26]; [32],0.15%
same,MIC,"[26]; 80% reduction in growth, amphotericin B complete inhibition",1500 µg/mL
same,MFC,[26]; 99.9% inhibition of growth,1500 µg/mL
same,"MFC, %",[26]; 99.9% inhibition of growth,0.15%
same,fungicidal activity,[26]; MFC within 1 doubling dilution of the MIC,Fungal activity
same,"MIC, %","[8]; Example 10, 80% reduction in growth endpoint",0.08%
same,MIC,"[8]; Example 10, 80% reduction in growth, amphotericin B complete inhibition",800 µg/mL
same,MFC,[8]; [30],3000 µg/mL
same,"MFC, %",[8]; [30],0.3%
same,fungicidal activity,"[8]; Example 10, MFC within 1 doubling dilution of the MIC",did not demonstrate fungicidal activity
same,MFC,[27],13000 µg/mL
same,"MFC, %",[27],1.3%
same,"MIC, %",[27]; [32],0.08%
same,MIC,"[27]; 80% reduction in growth, amphotericin B complete inhibition, terbinafine 50%/90%",800 µg/mL
same,MFC,[9]; Example 11,6000 µg/mL
same,"MFC, %",[9]; Example 11,0.6%
same,"MIC, %","[9]; Example 11, 80% reduction in growth endpoint",0.04%
same,MIC,"[9]; Example 11, 80% reduction in growth, amphotericin B complete inhibition",400 µg/mL
same,fungicidal activity,"[9]; Example 11, MFC within 1 doubling dilution of the MIC",did not demonstrate fungicidal activity
Monoglycinatecopper chloride complex,Death time of test-microorganisms (min) E. coli,[24]; Conc. 0.1 %,>30 min
same,Death time of test-microorganisms (min) E. coli,[24]; Conc. 0.2 %,30 min
same,Death time of test-microorganisms (min) E. coli,[24]; Conc. 0.5 %,15 min
same,Death time of test-microorganisms (min) S. aureus,[25]; Conc. 0.1 %,>30 min
same,Death time of test-microorganisms (min) S. aureus,[25]; Conc. 0.2 %,>30 min
same,Death time of test-microorganisms (min) S. aureus,[25]; Conc. 0.5 %,>30 min
same,Death time of test-microorganisms (min) S. aureus,[25]; Conc. 5.0 %,>30 min
same,Death time of test-microorganisms (min) B. cereus,[28],>360 min
